Source: patent US8802700B2 (Vertex Pharmaceuticals Incorporated, priority 2010, dated 2014)

Each molecule was assayed against T1, ΔF508-CFTR (Homo sapiens, UniProt P13569, DEL508-508) (assay: Membrane potential optical assay (FRET voltage-sensor dyes, VIPR), identification of potentiator compounds). Conditions: Table 3; assay not given.
T1 construct: expressed in transfected cells
T1 sequence (P13569 with tags, fused parts or gaps DEL508-508): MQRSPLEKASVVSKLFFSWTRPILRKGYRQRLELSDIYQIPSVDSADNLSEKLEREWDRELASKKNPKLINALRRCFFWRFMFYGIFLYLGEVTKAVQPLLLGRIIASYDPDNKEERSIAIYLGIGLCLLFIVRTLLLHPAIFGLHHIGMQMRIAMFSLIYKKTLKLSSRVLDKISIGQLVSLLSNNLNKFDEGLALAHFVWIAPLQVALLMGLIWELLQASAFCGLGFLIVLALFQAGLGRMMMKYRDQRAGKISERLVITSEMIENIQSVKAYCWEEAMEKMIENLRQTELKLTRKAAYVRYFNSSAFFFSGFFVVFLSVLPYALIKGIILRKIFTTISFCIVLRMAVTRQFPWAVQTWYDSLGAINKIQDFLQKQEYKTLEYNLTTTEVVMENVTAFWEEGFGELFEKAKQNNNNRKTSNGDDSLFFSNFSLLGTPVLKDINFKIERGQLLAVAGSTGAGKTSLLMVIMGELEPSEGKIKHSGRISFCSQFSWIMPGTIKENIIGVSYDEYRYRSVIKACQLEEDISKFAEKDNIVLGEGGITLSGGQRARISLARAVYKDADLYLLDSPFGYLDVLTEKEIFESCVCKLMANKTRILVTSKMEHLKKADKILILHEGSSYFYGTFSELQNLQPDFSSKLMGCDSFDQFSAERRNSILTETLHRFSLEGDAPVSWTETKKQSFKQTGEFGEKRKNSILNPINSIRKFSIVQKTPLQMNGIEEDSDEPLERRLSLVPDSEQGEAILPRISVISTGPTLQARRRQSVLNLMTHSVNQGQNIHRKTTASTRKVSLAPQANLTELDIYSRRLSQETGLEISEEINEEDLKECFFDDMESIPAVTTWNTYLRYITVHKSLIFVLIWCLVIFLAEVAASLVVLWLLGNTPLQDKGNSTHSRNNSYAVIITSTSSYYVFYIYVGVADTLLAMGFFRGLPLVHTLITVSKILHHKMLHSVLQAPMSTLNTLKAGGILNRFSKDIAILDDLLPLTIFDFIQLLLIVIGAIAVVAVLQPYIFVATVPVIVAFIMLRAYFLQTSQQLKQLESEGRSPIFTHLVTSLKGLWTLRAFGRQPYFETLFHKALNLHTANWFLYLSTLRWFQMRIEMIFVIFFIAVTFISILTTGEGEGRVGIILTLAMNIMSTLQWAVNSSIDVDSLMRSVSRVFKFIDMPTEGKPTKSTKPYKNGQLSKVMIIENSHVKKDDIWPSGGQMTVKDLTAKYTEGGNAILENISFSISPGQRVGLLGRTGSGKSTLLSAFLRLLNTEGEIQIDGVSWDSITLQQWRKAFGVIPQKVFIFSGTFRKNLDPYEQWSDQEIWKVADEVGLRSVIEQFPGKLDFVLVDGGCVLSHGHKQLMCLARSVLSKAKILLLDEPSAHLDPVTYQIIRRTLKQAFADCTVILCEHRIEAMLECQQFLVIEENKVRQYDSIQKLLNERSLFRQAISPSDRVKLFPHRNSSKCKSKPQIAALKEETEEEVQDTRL
Assay type: cell-based
Method in brief: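 NIH3T3 mouse fibroblasts stably expressing ΔF508-CFTR, cultured 24 h at 27 °C, were loaded with FRET voltage dyes CC2-DMPE and DiSBAC2(3). Double-addition format: first addition of Cl⁻-free (gluconate) medium with or without compound; membrane-potential change read as fluorescence on VIPR II.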
In the case of `CC(=O)N1CCCC(C)(C)c2ccc(NC(=O)c3c[nH]c4ccccc4c3=O)cc21` [Compound 109, N-(1-acetyl-2,3,4,5-tetrahydro-5,5-dimethyl-1H-benzo[b]azepin-8-yl)-1,4-dihydro-4-oxoquinoline-3-carboxamide], the EC50 is reported as 10 to 25 µM.
`O=C(Nc1ccccc1-c1cc(F)cc(F)c1)c1c[nH]c2ccccc2c1=O` [Compound 138, N-[2-(3,5-difluorophenyl)phenyl]-4-oxo-1H-quinoline-3-carboxamide] gave an EC50 of less than 10 µM.

Same assay, conditions: Table 3; assay not given; read-out: % Activity (% Efficacy, relative efficacy)
Work on `O=C(Nc1ccc2c3c([nH]c2c1)CCCC3)c1c[nH]c2ccccc2c1=O` [Compound 244, 4-oxo-N-(6,7,8,9-tetrahydro-5H-carbazol-2-yl)-1H-quinoline-3-carboxamide] yielded an Emax of 25 to 100%.
`O=C(Nc1cccc2c1CCC2)c1c[nH]c2ccccc2c1=O` [Compound 373, N-indan-4-yl-4-oxo-1H-quinoline-3-carboxamide] showed an Emax of 25 to 100%.
`CC(C)(C)c1ccc(NC(=O)c2c[nH]c3ccccc3c2=O)cc1CO` [Compound 6, N-[3-(hydroxymethyl)-4-tert-butyl-phenyl]-4-oxo-1H-quinoline-3-carboxamide] gave an Emax greater than 100%.
For `O=C(Nc1ccc(N2CCC[C@H]2C(=O)O)cc1C(F)(F)F)c1c[nH]c2ccccc2c1=O` [Compound 567, (S)-1-[4-[(4-oxo-1H-quinolin-3-yl)carbonylamino]-3-(trifluoromethyl)phenyl]pyrrolidine-2-carboxylic acid], the Emax was 25 to 100%.
Molecule `CCn1cc(C(=O)Nc2ccccc2)c(=O)c2cc(OC)ccc21` [Compound 480, 1-ethyl-6-methoxy-4-oxo-N-phenyl-1H-quinoline-3-carboxamide] has an Emax of less than 25%.
For `CCOc1ccc2ncc(C(=O)Nc3ccc4cc[nH]c4c3)c(O)c2c1` [Compound 112, 6-ethoxy-4-hydroxy-N-(1H-indol-6-yl)quinoline-3-carboxamide], the Emax was 25 to 100%.
`O=C(Nc1ccccc1-c1cc(F)ccc1F)c1c[nH]c2ccccc2c1=O` [Compound 384, N-[2-(2,5-difluorophenyl)phenyl]-4-oxo-1H-quinoline-3-carboxamide] showed an Emax of 25 to 100%.
`CSc1ccc(-c2ccccc2NC(=O)c2c[nH]c3ccccc3c2=O)cc1` [Compound 223, N-[2-(4-methylsulfanylphenyl)phenyl]-4-oxo-1H-quinoline-3-carboxamide] showed an Emax of 25 to 100%.
`COc1ccc(C)cc1NC(=O)c1c[nH]c2ccccc2c1=O` [Compound 120, N-(2-methoxy-5-methyl-phenyl)-4-oxo-1H-quinoline-3-carboxamide] was tested, and the Emax was 25 to 100%.
With `O=C(Nc1ccc(-c2ccccc2)cc1)c1c[nH]c2ccccc2c1=O` [Compound 397, 4-oxo-N-(4-phenylphenyl)-1H-quinoline-3-carboxamide] the Emax was 25 to 100%.
Work on `O=C(Nc1ccccc1-c1cccc(C(F)(F)F)c1)c1c[nH]c2ccccc2c1=O` [Compound 278, 4-oxo-N-[2-[3-(trifluoromethyl)phenyl]phenyl]-1H-quinoline-3-carboxamide] yielded an Emax of 25 to 100%.
In the case of `CC(=O)N1CCCC(C)(C)c2ccc(NC(=O)c3c[nH]c4ccccc4c3=O)cc21` [Compound 109, N-(1-acetyl-2,3,4,5-tetrahydro-5,5-dimethyl-1H-benzo[b]azepin-8-yl)-1,4-dihydro-4-oxoquinoline-3-carboxamide], the Emax is reported as 25 to 100%.
`CCc1ccc(NC(=O)c2c[nH]c3ccccc3c2=O)cc1NC(C)=O` [Compound 149, N-(3-acetylamino-4-ethyl-phenyl)-4-oxo-1H-quinoline-3-carboxamide] showed an Emax of 25 to 100%.
`CC(C)c1cc(C(F)(F)F)c(NC(=O)c2c[nH]c3ccccc3c2=O)cc1OCc1ccccc1` [Compound 570, N-[5-benzyloxy-4-isopropyl-2-(trifluoromethyl)phenyl]-4-oxo-1H-quinoline-3-carboxamide] was tested, and the Emax was 25 to 100%.
Work on `O=C(Nc1cccc2[nH]ccc12)c1c[nH]c2ccccc2c1=O` [Compound 100, N-(1H-indol-4-yl)-4-oxo-1H-quinoline-3-carboxamide] yielded an Emax of less than 25%.
Molecule `N#Cc1cc2ccc(NC(=O)c3c[nH]c4ccccc4c3=O)cc2[nH]1` [Compound 270, N-(2-cyano-1H-indol-6-yl)-4-oxo-1H-quinoline-3-carboxamide] has an Emax of 25 to 100%.
Molecule `CCc1ccc(NC(=O)c2c[nH]c3ccccc3c2=O)cc1N` [Compound 8, N-(3-amino-4-ethyl-phenyl)-4-oxo-1H-quinoline-3-carboxamide] has an Emax of 25 to 100%.
Molecule `COc1ccc2[nH]cc(C(=O)Nc3ccc(N4[C@H](C)CC[C@H]4C)cc3C(F)(F)F)c(=O)c2c1` [Compound 685, N-(4-((2R,5R)-2,5-dimethylpyrrolidin-1-yl)-2-(trifluoromethyl)phenyl)-6-methoxy-4-oxo-1,4-dihydroquinoline-3-carboxamide] has an Emax of 25 to 100%.
`O=C(Nc1cccc(Oc2ccccc2)c1)c1c[nH]c2ccccc2c1=O` [Compound 87, 4-oxo-N-(3-phenoxyphenyl)-1H-quinoline-3-carboxamide] gave an Emax of 25 to 100%.
`CCOC(=O)c1c(NC(=O)c2c[nH]c3ccccc3c2=O)ccc2cc[nH]c12` [Compound 412, 6-[(4-oxo-1H-quinolin-3-yl)carbonylamino]-1H-indole-7-carboxylic acid ethyl ester] showed an Emax of 25 to 100%.
In the case of `CC(C)(C)c1cc(C(C)(C)C)c(NC(=O)c2c[nH]c3cccc(N)c3c2=O)cc1O` [Compound 585, 5-amino-N-(5-hydroxy-2,4-ditert-butyl-phenyl)-4-oxo-1H-quinoline-3-carboxamide], the Emax is reported as greater than 100%.
`O=C(Nc1ccccc1)c1c[nH]c2cc(C(F)(F)F)ccc2c1=O` [Compound 346, 4-oxo-N-phenyl-7-(trifluoromethyl)-1H-quinoline-3-carboxamide] showed an Emax of 25 to 100%.
With `C=C(C)c1ccccc1NC(=O)c1c[nH]c2ccccc2c1=O` [Compound 445, N-(2-isopropenylphenyl)-4-oxo-1H-quinoline-3-carboxamide] the Emax was greater than 100%.
For `O=C(Nc1cccc(OC(F)(F)F)c1)c1c[nH]c2ccccc2c1=O` [Compound 62, 4-oxo-N-[3-(trifluoromethoxy)phenyl]-1H-quinoline-3-carboxamide], the Emax was 25 to 100%.
With `Cc1cccc(NC(=O)c2c[nH]c3ccccc3c2=O)n1` [Compound 173, N-(6-methyl-2-pyridyl)-4-oxo-1H-quinoline-3-carboxamide] the Emax was less than 25%.
`CC(C)(C)c1ccc(NC(=O)c2c[nH]c3ccccc3c2=O)cc1O` [Compound 428, N-(3-hydroxy-4-tert-butyl-phenyl)-4-oxo-1H-quinoline-3-carboxamide] was tested, and the Emax was 25 to 100%.
For `N#Cc1ccccc1NC(=O)c1c[nH]c2ccccc2c1=O` [Compound 95, N-(2-cyanophenyl)-4-oxo-1H-quinoline-3-carboxamide], the Emax was 25 to 100%.
For `COc1ccc(NC(=O)c2c[nH]c3ccccc3c2=O)cc1OC` [Compound 122, N-(3,4-dimethoxyphenyl)-4-oxo-1H-quinoline-3-carboxamide], the Emax was less than 25%.
Molecule `O=C(Nc1cc(O)cc(C(F)(F)F)c1)c1c[nH]c2ccc(F)cc2c1=O` [Compound 574, 6-fluoro-N-[3-hydroxy-5-(trifluoromethyl)phenyl]-4-oxo-1H-quinoline-3-carboxamide] has an Emax of 25 to 100%.
Work on `O=C(Nc1ccccc1-c1cc(F)cc(F)c1)c1c[nH]c2ccccc2c1=O` [Compound 138, N-[2-(3,5-difluorophenyl)phenyl]-4-oxo-1H-quinoline-3-carboxamide] yielded an Emax of 25 to 100%.
Work on `CC(C)c1ccc(NC(=O)c2c[nH]c3cccc(O)c3c2=O)cc1O` [Compound 587, 5-hydroxy-N-(3-hydroxy-4-isopropyl-phenyl)-4-oxo-1H-quinoline-3-carboxamide] yielded an Emax of 25 to 100%.
With `COC(=O)NC1CCCc2ccc(NC(=O)c3c[nH]c4ccccc4c3=O)cc21` (stereo not shown) [Compound 159, [7-[(4-Oxo-1H-quinolin-3-yl)carbonylamino]tetralin-1-yl]aminoformic acid methyl ester] the Emax was 25 to 100%.
